Patent US6495147B1 (LVMH Recherche, priority 1997, dated 2002)

What was measured:
[1] = tested on: normal human keratinocytes; test: Stimulation of synthesis and secretion of PG and GAG by keratinocytes (radioactive tracer incorporation); assay type: cell-based; settings: for GAG secreted / A, stimulating activity on the secretion of GAG: 48 h; for A, stimulating activity on the secretion of GAG: versus untreated control
Method: These tracers enable the amount of PG and GAG to be measured.
There are two families of GAG which differ in their sugar chains. One is based on a sequence of glucosamines and the other is based on a sequence of galactosamines. It is for this reason that two different radioactive tracers were used, namely ^3H-D-glucosamine and ^14C-D-galactosamine, which become incorporated in the osidic chains of PG and GAG during their synthesis.
The cells are incubated for 24 h at 37° C. in a humidity-saturated atmosphere containing 5% of CO2.
(§1) The cultures are then incubated for 48 h at 37° C. in a humidity-saturated atmosphere containing 5% of CO2.
The enzyme is then inactivated by heating for 10 min in boiling water, after which the mixture is brought back to room temperature. A selective precipitation of the GAG is effected with 40 μl of cetylpyridinium chloride (CPC at 100 mg/ml, Sigma) in the presence of 40 μl of a mixture of hyaluronic acid (Fluka), dermatan sulfate (Fluka) and chondroitin sulfate (Sigma), all at 2 mg/ml (amounting to the addition of a solution containing 6 mg/ml of non-radioactive GAG). These non-radioactive GAG are added to trigger the precipitation and entrain the radioactive GAG (which on their own would not be in a sufficient amount to precipitate) into the precipitate. The precipitate obtained is washed twice with 400 μl of a solution of CPC at 10 mg/ml, and then solubilized in 500 μl of methanol (Merck). The radioactivity is finally measured by liquid scintillation with 10 ml of scintillating liquid (Packard).
It should be noted when processing the results that the GAG whose synthesis has been measured have two origins. They originate both from the synthesized and secreted GAG and from the synthesized and secreted PG (which have undergone hydrolysis with pronase for the purposes of the assay).
In order to reduce the radioactivity to a unit amount of cellular material, the cellular proteins are assayed. After removal of the culture medium and two rinses with a phosphate buffer of pH 7.2 (PBS, Gibco), the cellular tapetum in the culture wells is dissolved in 30 μl of 0.1 M NaOH at 37° C. and the plates are agitated for 30 min at 37° C. 200 μl of bicinchoninic acid/Cu^++ sulfate reagent (Sigma kit) are added to each well. The plates are incubated for 30 min at 37° C. in the dark and the proteins which it is desired to assay reduce the cupric ions (Cu^++) of the copper sulfate to cuprous ions (Cu^+). The latter and the bicinchoninic acid form chromogenic complexes absorbing at 570 nm, which is the wavelength used to measure the optical density. In parallel, a calibration series is prepared under the same experimental conditions with 0 to 100 μg/well of bovine serum albumin (BSA, Sigma) in order to translate the optical densities (OD) obtained with the cellular proteins into Stg of BSA equivalent per well.
The amounts of GAG measured will be reduced to a unit amount of protein (expressed in jig of BSA equivalent).
The stimulating activity “A” on the secretion of GAG is calculated in the form of a percentage according to the following formula: [formula]

[2] = tested on: normal human keratinocytes; test: Cytotoxicity / cell viability in keratinocyte cultures; assay type: cell-based; settings: concentrations of 1.5 and 10 mM
Method: as §1

[3] = D-xylose 1 mM, tracer 3H-D-glucosamine
[4] = D-xylose 1 mM, tracer 14C-D-galactosamine
[5] = D-xylose 5 mM, tracer 3H-D-glucosamine
[6] = D-xylose 10 mM, tracer 3H-D-glucosamine
[7] = D-xylose 10 mM, tracer 14C-D-galactosamine

O=C[C@H](O)[C@@H](O)[C@H](O)CO [D-xylose]
GAG secreted [1, 3]: 2148 ± 160 dpm/μg protein
A, stimulating activity on the secretion of GAG [1, 3]: 55%
GAG secreted [1, 4]: 136 ± 12 dpm/μg protein
A, stimulating activity on the secretion of GAG [1, 4]: 34%
GAG secreted [1, 5]: 2661 ± 202 dpm/μg protein
A, stimulating activity on the secretion of GAG [1, 5]: 92%
A, stimulating activity on the secretion of GAG ([1]; D-xylose 5 mM, tracer 14C-D-galactosamine): 105%
GAG secreted [1, 6]: 2950 ± 262 dpm/μg protein
A, stimulating activity on the secretion of GAG [1, 6]: 113%
GAG secreted [1, 7]: 250 ± 28 dpm/μg protein
A, stimulating activity on the secretion of GAG [1, 7]: 145%
synthesis and extracellular secretion of PG and GAG by the keratinocytes of the human epidermis ([1]; irrespective of the radioactive tracer used): very strongly stimulates
cytotoxicity [2]: non-cytotoxic
